From ChEMBL document CHEMBL1141962, “Angiogenesis inhibitors derived from thalidomide” (2005)

Assays:
Type in all cases: functional
Details in all cases: Homo sapiens
[1] = test system: HUVEC; test: Inhibitory activity in HUVEC tube formation assay at 100 uM
[2] = test system: HUVEC; test: Inhibitory activity in HUVEC tube formation assay at 30 uM
[3] = test system: HUVEC; test: Inhibitory activity in HUVEC tube formation assay at 10 uM

## CC(C)c1cccc(C(C)C)c1N1C(=O)c2ccc(O)cc2C1=O
[1]
  inhibition at 100 µM: 59%
[2]
  inhibition at 30 µM: 41%
[3]
  inhibition at 10 µM: 8%

## O=C1CCC(N2C(=O)c3cccc([N+](=O)[O-])c3C2=O)C(=O)N1 (configuration not stated)
[1]
  inhibition at 100 µM: 32%

## Nc1cccc2c1CN(C1CCC(=O)NC1=O)C2=O (configuration not stated) [LENALIDOMIDE]
[1]
  inhibition at 100 µM: 32%

## Nc1cccc2c1C(=O)N(C1CCC(=O)NC1=O)C2=O (configuration not stated) [POMALIDOMIDE]
[1]
  inhibition at 100 µM: 21%

## O=C1CCC(N2C(=O)c3ccccc3C2=O)C(=O)N1 (configuration not stated) [THALIDOMIDE]
[1]
  inhibition at 100 µM: 26%
